Laboratory results from patent publication US6528532B1, “Urea derivatives as HIV aspartyl protease inhibitors” (Pharmacor Inc., priority 2002, dated 2003).
pKi: −log10 of the molar value.

How the values were obtained:
HIV protease = HIV protease (Human immunodeficiency virus type 1 group M subtype B, UniProt P04585); experiment: Enzymatic (FRET fluorometric) assay for determining the inhibition constant (Ki) of compounds targeting the HIV protease; assay type: biochemical; conditions: Ki, FRET substrate (EDANS/DABCYL), equation of Henderson
Text: Enzymatic Assay for Determining the Inhibition Constant (Ki) of Synthetic Compounds Targeting the HIV Protease
This is a fluorometric assay based on the cleavage by protease of a substrate carrying a donor group (EDANS) and an acceptor group (DABCYL) on each side of the cleavage site, interacting together through fluorescence resonance energy transfer (FRET) as described by Matayoshi et al. (Science 247:[…], 1990).
After calculation of Vo and Vi, the inhibition constant (Ki) of the compound is determined using the equation of Henderson: [formula]
where Vo=the enzyme's initial velocity
Vi=the enzyme velocity in the presence of the inhibitory compound,
[I]=inhibitor concentration, [S]=substrate concentration,
Km=Michaelis-Menten constant and Kiapp=apparent Ki
Graphs are traced and the Ki determined using GraphPad Prism software v. 3.0.

in vitro = assay type: cell-based; conditions: human
Description: To evaluate the EC50 of our compounds, various drug concentrations are incubated with the infected cell for six days and then the metabolic activity of the cells is monitored by the MTT assay. (See A. J. Japour et al, Antimicrobial Agents and Chemotherapy, 37, 1095-1101, 1993 and R. Pauwels et al. Journal of Virological Methods, 20, 309-321, 1988).
We use the laboratory viral strain NL4.3 as wild type virus and the cell line used is MT-4 which is a T-cell line highly sensitive to HIV-1. We also use some WT clinical strains. To address the resistance issue we assay the inhibitors with NL4.3 mutants which are designed to be resistant to specific commercially available inhibitors.
The same MTT assay is used to evaluate the CCIC50 (cell culture IC50) of our compounds except that the virus is omitted.

Structure (SMILES)	pKi (HIV protease)	IC50 at 6 days (in vitro) [µM]
Cc1ccc(S(=O)(=O)N(CC(C)C)[C@H](CO)CCCCNC(=O)N(Cc2ccccc2)Cc2ccccc2[N+](=O)[O-])cc1 [Example 59, (2S) 2-N-Isobutyl-2-N-(4-methylbenzenesulfonyl)-6-N-[N′-benzyl-N′-(2-nitrobenzyl)aminocarbonyl]-2,6-diaminohexanol]	8.77	4.6
Cc1ccc(S(=O)(=O)N(CC(C)C)[C@H](CO)CCCCNC(=O)N(Cc2ccccc2)Cc2cccc([N+](=O)[O-])c2)cc1 [Example 60, (2S) 2-N-Isobutyl-2-N-(4-methylbenzenesulfonyl)-6-N-[N′-benzyl-N′-(3-nitrobenzyl)aminocarbonyl]-2,6-diaminohexanol]	8.22	4.6
Cc1ccc(S(=O)(=O)N(CC(C)C)[C@H](CO)CCCCNC(=O)N(Cc2ccccc2)Cc2ccc([N+](=O)[O-])cc2)cc1 [Example 61, (2S) 2-N-Isobutyl-2-N-(4-methylbenzenesulfonyl)-6-N-[N′-benzyl-N′-(4-nitrobenzyl)aminocarbonyl]-2,6-diaminohexanol]	8.05	5.1
CC(C)CN([C@H](CO)CCCCNC(=O)N(Cc1ccc(F)cc1)Cc1ccc2c(c1)OCO2)S(=O)(=O)c1ccc(N)cc1 [Example 67, (2S) 2-N-(4-Aminobenzenesulfonyl)-2-N-isobutyl-6-N-[N′-(4-fluorobenzyl)-N′-piperonylaminocarbonyl]-2,6-diaminohexanol]	8.70	11
CC(C)CN([C@H](CO)CCCCNC(=O)N(Cc1ccccc1)Cc1ccc2c(c1)OCO2)S(=O)(=O)c1ccc(N)cc1 [Example 82, (2S) 2-N-(4-Aminobenzenesulfonyl)-2-N-isobutyl-6-N-(N′-benzyl-N′-piperonylaminocarbonyl)-2,6-diaminohexanol]	8.59	12.5
CC(C)CN([C@H](CO)CCCCNC(=O)N(Cc1ccc2c(c1)OCO2)Cc1ccc2c(c1)OCO2)S(=O)(=O)c1ccc(N)cc1 [Example 85, (2S) 2-N-(4-Aminobenzenesulfonyl)-2-N-isobutyl-6-N-(N′,N′-dipiperonylaminocarbonyl)-2,6-diaminohexanol]	8.77	13.1
COc1cc(CN(Cc2ccc3c(c2)OCO3)C(=S)NCCCC[C@@H](CO)N(CCC(C)C)S(=O)(=O)c2ccc(N)cc2)cc(OC)c1OC [Example 107, (2S) 2-N-(4-Aminobenzenesulfonyl)-2-N-(3-methylbutyl)-6-N-[N′-(3,4,5-trimethoxybenzyl)-N′-piperonylaminothiocarbonyl]-2,6-diaminohexanol]	–	10.7
